# Laboratory results from patent publication EP0571593B1, “NEW NON IONIC IODIZED AGENTS FOR X-RAY CONTRASTING, METHOD FOR PREPARING THEM AND GALENICAL COMPOSITIONS CONTAINING THEM” (CENTRO INVESTIGACION JUSTESA IMAGEN S.A., priority 1991, dated 1993).
# How the values were obtained:
# Assay type in all cases: physicochemical
# Iodine content = assay: Iodine content
# [1] = Viscosity of aqueous solutions; settings: 30°C, 300mg I/ml
# [2] = Osmolality of aqueous solutions; settings: 300mg I/ml
Structure (SMILES),% Iodine (Iodine content),Viscosity mPa s (30°C) at 300mg I/ml [1],Osmolality mosm/kg at 300mg I/ml [2]
"CN(C(=O)CNC(=O)c1c(I)c(NC(=O)CO)c(I)c(C(=O)NCC(O)CO)c1I)c1c(I)c(C(=O)NC(CO)C(O)CO)c(I)c(C(=O)NC(CO)C(O)CO)c1I (stereo not shown) [EXAMPLE 3, N,N'-bis-(1-hydroxymethyl-2,3-dihydroxyprogyl)-5-{3[N-(2,3-dihydroxypropyl)carbamoyl]-5-hydroxyacetamido-2,4,6-triiodobenzoylaminoacetyl-N-methylamino}-2,4,6-triiodoisophthalamide]","50,5%","9,3 mPa s",184 mosm/kg
"COCC(=O)Nc1c(I)c(C(=O)NCC(=O)Nc2c(I)c(C(=O)N(CCO)CCO)c(I)c(C(=O)N(CCO)CCO)c2I)c(I)c(C(=O)NCC(O)CO)c1I (stereo not shown) [EXAMPLE 31, N,N,N',N'-tetrakis(2-hydroxyethyl)-5-{3-[N(2,3-dihydroxypropyl)carbamoyl]-5-methoxyacetamido-2,4,6-triiodobenzoylaminoacetamido}-2,4,6-triiodoisophthalamide]","51,6%",–,–
"CN(CC(=O)N(C)c1c(I)c(C(=O)NC(CO)C(O)CO)c(I)c(C(=O)NC(CO)C(O)CO)c1I)C(=O)c1c(I)c(NC(=O)CO)c(I)c(C(=O)NCC(O)CO)c1I (stereo not shown) [EXAMPLE 8, N,N'-bis-(1-hydroxymethyl-2,3-dihydroxypropyl)-5-{3-[N-(2,3-dihydroxypropyl)carbamoyl]-5-hydroxyacetamido-2,4,6-triiodobenzoyl-N-methylaninoacetyl-N-nethylamino}-2,4,6-tri iodoisophthalamide]",50%,"7,6 mPa s",190 mosm/kg
"COCC(=O)Nc1c(I)c(C(=O)NC(CO)C(O)CO)c(I)c(C(=O)N(C)CC(=O)N(C)c2c(I)c(C(=O)NC(CO)C(O)CO)c(I)c(C(=O)NC(CO)C(O)CO)c2I)c1I (stereo not shown) [EXAMPLE 10, N,N'-bis-(1-hydroxymethyl-2,3-dihydroxypropyl)-5-{3-[N-(1-hydroxymethyl-2,3-dihydroxypropyl)carbamoyl]-5-methoxyacetamido-2,4,6-triiodobenzoyl-N-methylaminoacetyl-N-methylamino}-2,4,6-triiodoisophthalamide]","48,6%","8,9 mPa s",204 mosm/kg
"CN(CC(=O)N(C)c1c(I)c(C(=O)N(CCO)CCO)c(I)c(C(=O)N(CCO)CCO)c1I)C(=O)c1c(I)c(NC(=O)CO)c(I)c(C(=O)NCC(O)CO)c1I (stereo not shown) [EXAMPLE 29, N,N,N',N'-tetrakis-(2-hydroxyethyl)-5-{3-[N-(2,3-dihydroxypropyl)carbamoyl]-5-hydroxyacetamido-2,4,6-triiodobenzoyl-N-methylaminoacetyl-N-methylamino}-2,4,6-triiodoisophthalamide]","51,1%",–,–
"COCC(=O)Nc1c(I)c(C(=O)NCC(O)CO)c(I)c(C(=O)N(CCO)CC(=O)Nc2c(I)c(C(=O)NCCO)c(I)c(C(=O)NCCO)c2I)c1I (stereo not shown) [EXAMPLE 17, N,N'-bis-(2-hydroxyethyl)-5-{3-[N-(2,3-dihydroxypropyl)carbamoyl]-5-methoxyacetamido-2,4,6-triodobenzoyl-N-(2-hydroxyethyl)aminoacetamido}-2,4,6-triiodoisophthalamide]","53,2%",–,–
"CC(=O)Nc1c(I)c(C(=O)NCC(O)CO)c(I)c(C(=O)N(C)CC(=O)N(C)c2c(I)c(C(=O)NC(CO)C(O)CO)c(I)c(C(=O)NC(CO)C(O)CO)c2I)c1I (stereo not shown) [EXAMPLE 38, N,N'-bis-(1-hydroxymethyl-2,3-dihydroxypropyl)-5-{3-[N-(2,3-dihydroxypropyl]carbamoyl]-5-acetamido-2,4,6-triiodobenzoyl -N-methylacetyl-N-methylamino}-2,4,6-triiodoisophthalamide]","50,6%","9,1 mPa s",155 mosm/kg
"COCC(=O)Nc1c(I)c(C(=O)NCC(=O)N(C)c2c(I)c(C(=O)N(C)CC(O)CO)c(I)c(C(=O)N(C)CC(O)CO)c2I)c(I)c(C(=O)NCC(O)CO)c1I (stereo not shown) [EXAMPLE 27, N,N'-bis-(2,3-dihydroxypropyl)-N,N'-dimethyl-5-{3-[N-(2,3-dihydroxypropyl)carbamoyl]-5-methoxyacetamido-2,4,6-triiodobenzoylaminoacetyl-N-methylamino}-2,4,6-triiodo isophthalamide]","51,1%",–,–
"COCC(=O)Nc1c(I)c(C(=O)NCC(=O)Nc2c(I)c(C(=O)NC(CO)C(O)CO)c(I)c(C(=O)NC(CO)C(O)CO)c2I)c(I)c(C(=O)NCC(O)CO)c1I (stereo not shown) [EXAMPLE 20, N,N'-bis-(1-hydroxymethyl-2,3-dihydroxypropyl)-5-{3-[N-(2,3-dihydroxypropyl)carbamoyl]-5-methoxyacetamido-2,4,6-triiodobenzoylaminoacetamido}-2,4,6-triiodoisolphthalamide]","50,5%",–,–
"O=C(CN(CCO)C(=O)c1c(I)c(NC(=O)CO)c(I)c(C(=O)NCC(O)CO)c1I)Nc1c(I)c(C(=O)NCCO)c(I)c(C(=O)NCCO)c1I (stereo not shown) [EXAMPLE 14, N,N'-bis-(2-hydroxyethyl)-5-{3-[N-(2,3-dihydroxypropyl)-carbamoyl]-5-hydroxyacetamido-2,4,6-triiodobenzoyl-N-(2, hydroxyethyl)aminoacetamido}-2,4,6-triiodoisophthalamide]","53,7%",–,–
"O=C(CO)Nc1c(I)c(C(=O)NCC(=O)Nc2c(I)c(C(=O)NC(CO)C(O)CO)c(I)c(C(=O)NC(CO)C(O)CO)c2I)c(I)c(C(=O)NCC(O)CO)c1I (stereo not shown) [EXAMPLE 19, N,N'-bis-(1-hydroxymethyl-2,3-dihydroxypropyl)-5-{3-[N-(2,3-dihydroxypropyl)carbamoyl]-5-hydroxyacetamido-2,4,6-triiodobenzoylaminoacetamido}-2,4,6-triiodoisophthalamide]",51%,–,–
O=C(CO)Nc1c(I)c(C(=O)NCC(=O)Nc2c(I)c(C(=O)NCC(O)CO)c(I)c(C(=O)NCC(O)CO)c2I)c(I)c(C(=O)NCC(O)CO)c1I (stereo not shown) [EXAMPLE 18],"53,1%",–,–
"COCC(=O)Nc1c(I)c(C(=O)NCC(O)CO)c(I)c(C(=O)N(C)CC(=O)Nc2c(I)c(C(=O)NC(CO)C(O)CO)c(I)c(C(=O)NC(CO)C(O)CO)c2I)c1I (stereo not shown) [EXAMPLE 21, N,N'-bis-(1-hydroxymethyl-2,3-dihydroxypropyl)-5-{3-[N-(2,3-dihydroxypropyl)carbomoyl]-5-methoxyacetamido-2,4,6-triiodo-benzoyl-N-methylaminoacetamido}-2,4,6-triiodoisophthalamide]",50%,–,–

# More lines, now with the values ahead:
% Iodine (Iodine content),Viscosity mPa s (30°C) at 300mg I/ml [1],Osmolality mosm/kg at 300mg I/ml [2],Structure (SMILES)
"52,6%","9,9 mPa s",130 mosm/kg,"CC(=O)Nc1c(I)c(C(=O)NCC(O)CO)c(I)c(C(=O)N(C)CC(=O)N(C)c2c(I)c(C(=O)NCC(O)CO)c(I)c(C(=O)NCC(O)CO)c2I)c1I (stereo not shown) [EXAMPLE 37, N,N'-bis-(2,3-dihydroxypropyl)-5-{3-[N-(2,3-dihydroxypropyl)carbamoyl]-5-acetamido-2,4,6-triiodobenzoyl-N-methylacetyl-N-methylamino}-2,4,6-triiodoisophthalamide]"
"50,0%","9,0 mPa s",135 mosm/kg,"COCC(=O)Nc1c(I)c(C(=O)N(C)CC(=O)N(C)c2c(I)c(C(=O)NCC(O)CO)c(I)c(C(=O)NCC(O)CO)c2I)c(I)c(C(=O)N(CCO)CC(O)CO)c1I (stereo not shown) [EXAMPLE 41, N,N'-bis-(2,3-dihydroxypropyl)-5-{3-[N-(2-hydroxyethyl)-N-(2,3-dihydroxypropyl)carbamoyl]-5-methoxyacetamido-2,4,6-triiodobenzoyl-N-methylaminoacetyl-N-methylamino} --2,4,6-triiodoisophthalamide]"
"51,6%",–,–,"COCC(=O)Nc1c(I)c(C(=O)NCC(=O)N(C)c2c(I)c(C(=O)NCC(O)CO)c(I)c(C(=O)NCC(O)CO)c2I)c(I)c(C(=O)NCC(O)CO)c1I (stereo not shown) [EXAMPLE 28, N,N'-bis-(2,3-dihydroxypropyl)-5-{3-[N-(2,3-dihydroxypropyl)carbamoyl]-5-methoxyacetamido-2,4,6-triiodobenzoylaminoacetyl-N-methylamino}-2,4,6-triiodoisophthalamide]"
"51,6%","8,6 mPa s",130 mosm/kg,"COCC(=O)Nc1c(I)c(C(=O)NCC(O)CO)c(I)c(C(=O)N(C)CC(=O)N(C)c2c(I)c(C(=O)NCC(O)CO)c(I)c(C(=O)NCC(O)CO)c2I)c1I (stereo not shown) [EXAMPLE 12, N,N'-bis-(2,3-dihydroxypropyl)-5-{3-[N-(2,3-dihydroxypropyl)carbamoyl]-5-methoxyacetamido-2,4,6-triiodobenzoyl -N-methylaminoacetyl-N-methylamino}-2,4,6-triiodoisophthalamide]"
"50,6%",–,–,"COCC(=O)Nc1c(I)c(C(=O)NCC(O)CO)c(I)c(C(=O)N(C)CC(=O)N(C)c2c(I)c(C(=O)N(CCO)CCO)c(I)c(C(=O)N(CCO)CCO)c2I)c1I (stereo not shown) [EXAMPLE 30, N,N,N',N', -tetrakis-(2-hydroxyethyl)-5-{3-[N-(2,3-dihydroxypropyl)carbamoyl]-5-methoxyacetamido-2,4,6-triiodobenzoyl-N -methylaminoacetyl-N-methylamino}-2,4,6-triiodo-isophthalamide]"
50%,–,–,"O=C(NCC(=O)N(CCO)c1c(I)c(C(=O)NCC(O)CO)c(I)c(C(=O)NCC(O)CO)c1I)c1c(I)c(C(=O)NCC(O)CO)c(I)c(N(CCO)C(=O)CO)c1I (stereo not shown) [EXAMPLE 34, N,N'-bis-(2,3-dihydroxypropyl)-5-{3-[N-(2,3-dihydroxypropyl)carbamoyl]-5-hydroxyacetyl-N-(2-hydroxyethyl)amino-2,4,6-triiodobenzoylaminoacetyl-N-(2-hydroxyethyl)amino}-2,4,6-triiodoisophthalamide]"
"48,2%",–,–,"COCC(=O)N(CCO)c1c(I)c(C(=O)NCC(O)CO)c(I)c(C(=O)N(CCO)CC(=O)N(CCO)c2c(I)c(C(=O)NCC(O)CO)c(I)c(C(=O)NCC(O)CO)c2I)c1I (stereo not shown) [EXAMPLE 33, N,N'-bis-(2,3-dihydroxypropyl)-5-{3-[N-(2,3-dihydroxypropyl)carbamoyl]-5-methoxyacetyl-N-(2-hydroxyethyl)amino-2,4,6-triiodobenzoyl-N-(2-hydroxyethyl)aminoacetyl-N-(2-hydroxyethyl)amino)-2,4,6-triiodoisophthalamide]"
